# Results from patent US7947833B2, “Preparation of quinoxaline compounds” (Janssen Pharmaceutica NV, priority 2004, dated 2011).
# Biological target: CCK2 receptor (Cavia porcellus, UniProt H0VZC5)
# Assay: Guinea-pig gastric corpeal muscle assay (pentagastrin-induced contraction)
# Settings: isolated guinea-pig gastric corpeal muscle strips, pentagastrin concentration-response curves, CCK1 receptors blocked
# Protocol: Guinea-Pig Gastric Corpeal Muscle Assay
# CCK2 receptor-mediated muscle contraction was measured in an isolated muscle-strip assay of guinea-pig gastric corpeal muscle according to the methods described by Roberts et al. (S. P. Roberts, E. A. Harper, G. F. Watt, V. P. Gerskowitch, R. A. Hull, N. P. Shankley, and J. W. Black, Br. J. Pharmacol., 1996, 118(7):1779-1789). In brief, strips of muscle were dissected and suspended in isolated tissue organ baths for isotonic muscle contraction recording. The baths, containing Krebs-Henseleit solution, were maintained at […]. and gassed continuously with 95% O2 and 5% CO2. CCK1 receptors known to be present in this assay were blocked using a selective concentration of a suitable CCK1 receptor antagonist (e.g. 2-NAP). The effectiveness of the test compounds was assessed by measuring their effect on contractile concentration-response curves obtained using a well-characterized surrogate for the hormone gastrin (pentagastrin). […]
# Chain of CCK2 receptor (H0VZC5 entry or part of it): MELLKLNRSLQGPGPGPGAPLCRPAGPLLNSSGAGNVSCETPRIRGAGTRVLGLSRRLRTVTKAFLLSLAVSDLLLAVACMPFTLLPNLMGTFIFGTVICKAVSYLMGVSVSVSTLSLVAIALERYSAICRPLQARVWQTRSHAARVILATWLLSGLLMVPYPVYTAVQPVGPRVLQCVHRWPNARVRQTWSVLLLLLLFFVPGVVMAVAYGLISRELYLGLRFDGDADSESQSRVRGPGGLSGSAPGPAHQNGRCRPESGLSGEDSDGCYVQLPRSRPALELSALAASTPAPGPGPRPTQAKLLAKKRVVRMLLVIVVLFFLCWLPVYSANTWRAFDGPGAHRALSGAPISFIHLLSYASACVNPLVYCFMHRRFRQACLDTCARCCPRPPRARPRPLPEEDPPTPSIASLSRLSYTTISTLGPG
smiles,measurement,value
"C[C@@H](NC(=O)c1ccc(Br)cc1NS(=O)(=O)c1cccc2nccnc12)c1ccc(F)cc1F [Example 2, (R)-4-Bromo-N-[1-(2,4-difluoro-phenyl)-ethyl]-2-(quinoxaline-5-sulfonylamino)-benzamide]",behaviour in the assay (mode of antagonism),competitive antagonist
